System: SK-N-SH human neuroblastoma cells
Test: Serum Deprivation/JC-1 Mitochondrial Membrane Potential (MMP) Assay
Format: cell-based
Settings: for Emax / JC-1 max %: percent maximal JC-1 ratio normalized to peak value for 10 μM dimebolin; for Emax: read-out: JC-1 max %; for EC50: serum deprivation ~18 hours, JC-1 ratio normalized to peak value for 10 μM dimebolin
Protocol: Tissue Culture: SK-N-SH human neuroblastoma cells obtained from American Type Culture Collection (Rockville, Md.) were maintained in the log phase of growth in Minimal Essential Media (MEM), 10% heat inactivated fetal calf serum and 100 units/mL antibiotic-antimycotic (AA). Cells were cultured and maintained in a humidified incubator at 37° C. under 5% CO2 and 95% air. Cells were trypsinized (0.25%) and subcultured every 3 days and used from 15-18 passages. All cell culture supplies were obtained from Invitrogen (Carlsbad, Calif.).
Serum Deprivation/JC-1 Mitochondrial Membrane Potential (MMP) Assay.
SK-N-SH cells were plated 2-3 days in advance at a concentration of 50,000 cells/well onto collagen coated black-walled 96 well plates (Becton-Dickinson, Bedford, Mass.) in a total volume of 200 μL. On day of experimental treatment, the media containing serum was aspirated from each well and rinsed once with MEM/1% AA without serum. The cells then were incubated overnight in 100 μL of MEM/1% AA (no serum) with and without dimebolin or novel chemical entities overnight for ˜18 hours. The following day, JC-1 dye (5,5′,6,6′-tetrachloro-1,1′,3,3′-tetraethylbenzimidazolcarbocyanide) was diluted 1:10 into MEM media according to the JC-1 Mitochondrial Membrane Potential Assay Kit: (Cayman Chemical Company, Ann Arbor, Mich.) and then 10 μL of the JC-1 dye solution was added to each well. The plates were centrifuged for 5 minutes at 400×g at room temperature followed by 40 minute incubation at 37° C. The plates were washed twice with 200 μL of provided Assay Buffer followed an addition of 100 μL of Assay Buffer to each well. The plates were read with an excitation and emission of 560 nm and 595 nM for red fluorescence and with an excitation and emission of […] and 535 nM for green fluorescence to determine the final JC-1 value taking the red to green fluorescence ratio. This assay is based on change in mitochondrial membrane potential (MMP) using this lipophilic cationic dye, JC-1, by monitoring the changes in the ratio of red to green fluorescence as the MMP depolarizes. This change in MMP reflects the health of the cell with healthy, viable cells have a high JC-1 ratio and high MMP whereas apoptotic, unhealthy cells have a low JC-1 ratio or low MMP.
For the ability of compounds to reverse the stress due to serum deprivation and increase the JC-1 ratio, the percent maximal intensity in JC-1 ratio was normalized to that induced by the peak value for 10 μM dimebolin and plotted against the compound concentration to calculate EC50 values and to control for plate-to-plate variability. Concentration-response data were analyzed using GraphPad Prism (San Diego, Calif.); the EC50 values were derived from a single curve fit to the mean data of n=2-3, in duplicates.
All compounds were dissolved in dimethyl sulfoxide at 10 mM stock solutions and tested at a concentration that the dimethyl sulfoxide levels never exceeded 1%.

Structure (SMILES) | Emax (Homo sapiens, SK-N-SH) [%] | EC50 (Homo sapiens, SK-N-SH) [µM] | JC-1 max % [%] | EC50 [µM]
Cc1ccc(/C=C/c2cccc3[nH]c4c(c23)CN2CCC4CC2)cn1 [Example 18, 10-[(E)-2-(6-methylpyridin-3-yl)vinyl]-3,4,5,6-tetrahydro-1H-2,5-ethanoazepino[4,3-b]indole] | 173 | 3.1 |  | 
Cc1ccc(C#Cc2ccc3c4c([nH]c3c2)C2CCN(CC2)C4)cn1 [Example 22, 8-[(6-methylpyridin-3-yl)ethynyl]-3,4,5,6-tetrahydro-1H-2,5-ethanoazepino[4,3-b]indole] | 185 | 8.66 |  | 
Cc1ccc(/C=C/c2cccc3c2NC2C4CCN(CC4)CC32)cn1 (stereo not drawn) [Example 36, (cis)-7-[(E)-2-(6-methylpyridin-3-yl)vinyl]-3,4,5,5a,6,10b-hexahydro-1H-2,5-ethanoazepino[4,3-b]indole] |  |  | 196 | 6.89
c1ccc2ncc(-c3cccc4c5c([nH]c34)C3CCN(CC3)C5)cc2c1 [Example 41, 7-(quinolin-3-yl)-3,4,5,6-tetrahydro-1H-2,5-ethanoazepino[4,3-b]indole] | 171 | 3.68 |  | 
Cc1ccc(C#Cc2cccc3[nH]c4c(c23)CN2CCC4CC2)cn1 [Example 23, 10-[(6-methylpyridin-3-yl)ethynyl]-3,4,5,6-tetrahydro-1H-2,5-ethanoazepino[4,3-b]indole] | 140 | 7.27 |  | 
Cc1ccc(/C=C\c2cccc3c4c([nH]c23)C2CCN(CC2)C4)cn1 [Example 31, 7-[(Z)-2-(6-methylpyridin-3-yl)vinyl]-3,4,5,6-tetrahydro-1H-2,5-ethanoazepino[4,3-b]indole] | 120 | 7.75 |  | 
Cc1ccc(/C=C/c2cccc3c4c([nH]c23)C2CC[N+]([O-])(CC2)C4)cn1 [Example 28, 7-[(E)-2-(6-methylpyridin-3-yl)yinyl]-1,2,3,4,5,6-hexahydro-2,5-ethanoazepino[4,3-b]indole 2-oxide] |  |  | 50 | > 30
C(=C\c1cccc2c3c([nH]c12)C1CCN(CC1)C3)/c1cncnc1 (single isomer, unassigned) [Example 29, 7-[(E)-2-(pyrimidin-5-yl)vinyl]-3,4,5,6-tetrahydro-1H-2,5-ethanoazepino[4,3-b]indole] | 54 | 5.33 |  | 
C(=C/c1cccc2c3c([nH]c12)C1CCN(CC1)C3)/c1cncnc1 (single isomer, unassigned) [Example 30, 7-[(Z)-2-(pyrimidin-5-yl)vinyl]-3,4,5,6-tetrahydro-1H-2,5-ethanoazepino[4,3-b]indole] | 29 | > 30 |  | 
c1ccc(CCCCCc2cccc3c4c([nH]c23)C2CCN(CC2)C4)cc1 [Example 7, 7-(5-phenylpentyl)-3,4,5,6-tetrahydro-1H-2,5-ethanoazepino[4,3-b]indole] | 62 | 1.43 |  | 
Fc1ccc(/C=C/c2cccc3c4c([nH]c23)C2CCN(CC2)C4)c(F)c1 [Example 14, 7-[(E)-2-(2,4-difluorophenyl)vinyl]-3,4,5,6-tetrahydro-1H-2,5-ethanoazepino[4,3-b]indole] | 39 | > 30 |  | 
Cc1ccc(CCc2cccc3c4c([nH]c23)C2CCN(CC2)C4)cn1 [Example 2, 7-[2-(6-methylpyridin-3-yl)ethyl]-3,4,5,6-tetrahydro-1H-2,5-ethanoazepino[4,3-b]indole] | 170 | 5.22 |  | 
Clc1ccc(/C=C/c2cccc3c4c([nH]c23)C2CCN(CC2)C4)cc1 [Example 4, 7-[(E)-2-(4-chlorophenyl)vinyl]-3,4,5,6-tetrahydro-1H-2,5-ethanoazepino[4,3-b]indole] | 123 | 4.09 |  | 
Cc1ccc(/C=C/c2cc(F)cc3c4c([nH]c23)C2CCN(CC2)C4)cn1 [Example 25, 9-fluoro-7-[(E)-2-(6-methylpyridin-3-yl)vinyl]-3,4,5,6-tetrahydro-1H-2,5-ethanoazepino[4,3-b]indole] | 127 | 3.42 |  | 
C(=C\c1cccc2c3c([nH]c12)C1CCN(CC1)C3)/CCCc1ccccc1 [Example 5, 7-[(1E)-5-phenylpent-1-enyl]-3,4,5,6-tetrahydro-1H-2,5-ethanoazepino[4,3-b]indole] | 58 | 5.27 |  | 
c1cc(-c2ccncc2)c2[nH]c3c(c2c1)CN1CCC3CC1 [Example 40, 7-(pyridin-4-yl)-3,4,5,6-tetrahydro-1H-2,5-ethanoazepino[4,3-b]indole] | 92 | 8.99 |  | 
Cc1ccc(CCc2cccc3c4c([nH]c23)CN2CCC4CC2)cn1 [Example 33, 9-[2-(6-methylpyridin-3-yl)ethyl]-3,4,5,10-tetrahydro-1H-2,5-ethanoazepino[3,4-b]indole] | 197 | 6.01 |  | 
C(#Cc1cccc2c3c([nH]c12)C1CCN(CC1)C3)c1cccnc1 [Example 13, 7-(pyridin-3-ylethynyl)-3,4,5,6-tetrahydro-1H-2,5-ethanoazepino[4,3-b]indole] | 142 | 5.17 |  | 
C(#Cc1cccc2c3c([nH]c12)C1CCN(CC1)C3)c1ccncc1 [Example 21, 7-(pyridin-4-ylethynyl)-3,4,5,6-tetrahydro-1H-2,5-ethanoazepino[4,3-b]indole] | 104 | 3.69 |  | 
Cc1ccc(C#Cc2cc(F)cc3c4c([nH]c23)C2CCN(CC2)C4)cn1 [Example 24, 9-fluoro-7-[(6-methylpyridin-3-yl)ethynyl]-3,4,5,6-tetrahydro-1H-2,5-ethanoazepino[4,3-b]indole] | 156 | 5.38 |  | 
FC(F)(F)Oc1ccc(C#Cc2cccc3c4c([nH]c23)C2CCN(CC2)C4)cc1 [Example 20, 7-{[4-(trifluoromethoxy)phenyl]ethynyl}-3,4,5,6-tetrahydro-1H-2,5-ethanoazepino[4,3-b]indole] | 47 | > 30 |  | 
Cc1ccc(-c2cccc3c4c([nH]c23)C2CCN(CC2)C4)cn1 [Example 37, 7-(6-methylpyridin-3-yl)-3,4,5,6-tetrahydro-1H-2,5-ethanoazepino[4,3-b]indole] | 179 | 8.66 |  | 
Cc1ccc(/C=C/c2cccc3c4c([nH]c23)C2CCCN(C4)C2)cn1 (stereo not drawn) [Example 35, 8-[(E)-2-(6-methylpyridin-3-yl)vinyl]-1,3,4,5,6,7-hexahydro-2,6-methanoazocino[4,3-b]indole] | 213 | 7.28 |  | 
c1ccc(COc2cccc3c4c([nH]c23)C2CCN(CC2)C4)cc1 [Example 26, 7-(benzyloxy)-3,4,5,6-tetrahydro-1H-2,5-ethanoazepino[4,3-b]indole] | 494 | 9.81 |  | 
C(=C\c1cccc2c3c([nH]c12)C1CCN(CC1)C3)/c1ccncc1 [Example 11, 7-[(E)-2-pyridin-4-ylvinyl]-3,4,5,6-tetrahydro-1H-2,5-ethanoazepino[4,3-b]indole] | 171 | 6.73 |  | 
C(=C\c1cccc2c3c([nH]c12)C1CCN(CC1)C3)/c1ccccc1 [Example 19, 7-[(E)-2-phenylvinyl]-3,4,5,6-tetrahydro-1H-2,5-ethanoazepino[4,3-b]indole] | 64 | 3.52 |  | 
Fc1ccc(/C=C/c2cccc3c4c([nH]c23)C2CCN(CC2)C4)cc1 [Example 10, 7-[(E)-2-(4-fluorophenyl)vinyl]-3,4,5,6-tetrahydro-1H-2,5-ethanoazepino[4,3-b]indole] | 84 | 4.74 |  | 
Cc1ccc(/C=C/c2cccc3c4c([nH]c23)CN2CCC4CC2)cn1 [Example 32, 9-[(E)-2-(6-methylpyridin-3-yl)vinyl]-3,4,5,10-tetrahydro-1H-2,5-ethanoazepino[3,4-b]indole] | 199 | 3.64 |  | 
c1cncc(-c2cccc3c4c([nH]c23)C2CCN(CC2)C4)c1 [Example 39, 7-(pyridin-3-yl)-3,4,5,6-tetrahydro-1H-2,5-ethanoazepino[4,3-b]indole] | 113 | 10.3 |  | 
Fc1cccc(/C=C/c2cccc3c4c([nH]c23)C2CCN(CC2)C4)c1 [Example 15, 7-[(E)-2-(3-fluorophenyl)vinyl]-3,4,5,6-tetrahydro-1H-2,5-ethanoazepino[4,3-b]indole] | 44 | > 30 |  | 
